Source: paper PMC10587126, “Molecular hybridization strategy for tuning bioactive peptide function” (Communications Biology, 2023)
No end group written: not given here.

Legend:
[1] = tested on: human erythrocytes; assay: Hemolytic activity; type: cell-based; settings: 0.1–100 μmol L^−1 in PBS, room temperature, 1 h, absorbance 405 nm
Description: Assays against freshly collected human erythrocytes were performed following protocols described by Pedron et al.[54]. Briefly, peptide aliquots at concentrations ranging from 0.1 to 100 μmol L^−1 were incubated with a suspension of erythrocytes at room temperature for 1 h. The samples were then centrifuged, and the absorbance of the supernatant was measured at 405 nm. […] The surfactant SDS and PBS buffer were used as positive[81],[82] and negative controls, respectively. Sodium heparin was used as an anticoagulant when collecting human blood. Three biological repeats were performed. All experiments were performed in accordance with the protocol CEUA/IB #I-1345/15 approved by the Instituto Butantan.

[2] = Resistance to proteolytic degradation in fetal bovine serum; type: in vitro ADME; settings: 25% fetal bovine serum in water, 37 °C
Description: Stability assays were performed following the protocol described by Torres et al.[67]. Briefly, a peptide solution was added to GIBCO fetal bovine serum diluted to 25% in water and kept at 37 °C. The degradation kinetics were monitored by liquid chromatography and the percentage of peptide remaining in each case was calculated by integrating the peptide peak area. These experiments were performed as three independent replicates, and aliquots were taken at 0, 0.5, 1, 2, 4, and 6 h.

[3] = Mouse body weight in the skin abscess infection model; type: in vivo
Description: (§1) The anti-infective activity of the peptides VmCT1, temporin A, VT, and TV against A. baumannii ATCC 19606 was evaluated as described by Torres et al.[7],[83] Bacteria were grown in tryptic soy broth medium to an optical density of 0.5 at 600 nm. Cells were washed twice with sterile phosphate-buffered saline (pH 7.4, 13,000 rpm for 1 min) and resuspended to a final concentration of 1 × 10^7 CFU/20 μL. To generate the skin infection, female CD-1 mice (6-weeks-old) were first anesthetized with isoflurane and their backs were shaved. Using a needle, a superficial linear abrasion was made on the shaved area of the mice to injure just the stratum corneum and the upper layer of the epidermis. An aliquot of 20 μL containing 1 × 10^7 CFU of A. baumannii was then inoculated over the wound area with a pipette tip. The next day, the infected area was treated with the peptides (i.e., VmCT1, temporin A, VT, and TV), which were administered onto the abscess at their MIC. The animals were euthanized, and the scarified skin area removed 2- and 4-days post-infection. The excised area was homogenized using a bead beater for 20 min (25 Hz) and serially diluted for CFU quantification. Eight mice were used per group (n = 8). All experiments were performed in accordance with protocol 806763 approved by the IACUC at the University of Pennsylvania.

[4] = tested on: A. baumannii ATCC 19606; assay: Skin abscess infection mouse model, CFU quantification; type: in vivo, Acinetobacter baumannii (in female CD-1 mice); settings: female CD-1 mice, 1 × 10^7 CFU, peptide onto the abscess at MIC
Description: as §1

[5] = LC peak area, time 0 = 100, 0.5 h, replicate 1
[6] = LC peak area, time 0 = 100, 0.5 h, replicate 2
[7] = LC peak area, time 0 = 100, 0.5 h, replicate 3
[8] = LC peak area, time 0 = 100, 1 h, replicate 1
[9] = LC peak area, time 0 = 100, 1 h, replicate 2
[10] = LC peak area, time 0 = 100, 1 h, replicate 3
[11] = LC peak area, time 0 = 100, 2 h, replicate 1
[12] = LC peak area, time 0 = 100, 2 h, replicate 2
[13] = LC peak area, time 0 = 100, 2 h, replicate 3
[14] = LC peak area, time 0 = 100, 4 h, replicate 1
[15] = LC peak area, time 0 = 100, 4 h, replicate 2
[16] = LC peak area, time 0 = 100, 4 h, replicate 3
[17] = LC peak area, time 0 = 100, 6 h, replicate 1
[18] = LC peak area, time 0 = 100, 6 h, replicate 2
[19] = LC peak area, time 0 = 100, 6 h, replicate 3
[20] = day 0 = 100, Day 1, replicate 1
[21] = day 0 = 100, Day 1, replicate 2
[22] = day 0 = 100, Day 1, replicate 3
[23] = day 0 = 100, Day 2, replicate 1
[24] = day 0 = 100, Day 2, replicate 2
[25] = day 0 = 100, Day 2, replicate 3
[26] = day 0 = 100, Day 3, replicate 1
[27] = day 0 = 100, Day 3, replicate 2
[28] = day 0 = 100, Day 3, replicate 3
[29] = day 0 = 100, Day 4, replicate 1
[30] = day 0 = 100, Day 4, replicate 2
[31] = day 0 = 100, Day 4, replicate 3

SLGALINVLKSGG-NH2 [DV]
Hemolytic activity (concentration of peptide needed to kill 10% of red blood cells) [1]: 0.1 µmol/L
Peptide remaining [2, 5]: 13.4
Peptide remaining [2, 6]: 10.6
Peptide remaining [2, 7]: 0.0
Peptide remaining [2, 8]: 0.0
Peptide remaining [2, 9]: 0.0
Peptide remaining [2, 10]: 0.0
Peptide remaining [2, 11]: 0.0
Peptide remaining [2, 12]: 0.0
Peptide remaining [2, 13]: 0.0
Peptide remaining [2, 14]: 0.0
Peptide remaining [2, 15]: 0.0
Peptide remaining [2, 16]: 0.0
Peptide remaining [2, 17]: 0.0
Peptide remaining [2, 18]: 0.0
Peptide remaining [2, 19]: 0.0

FLPLLWRVASGVF-NH2 [VT]
Mouse body weight, normalized to the weight at the beginning of the experiment [3, 20]: 95
Mouse body weight, normalized to the weight at the beginning of the experiment [3, 21]: 100
Mouse body weight, normalized to the weight at the beginning of the experiment [3, 22]: 100
Mouse body weight, normalized to the weight at the beginning of the experiment [3, 23]: 90
Mouse body weight, normalized to the weight at the beginning of the experiment [3, 24]: 105
Mouse body weight, normalized to the weight at the beginning of the experiment [3, 25]: 100
Mouse body weight, normalized to the weight at the beginning of the experiment [3, 26]: 90
Mouse body weight, normalized to the weight at the beginning of the experiment [3, 27]: 100
Mouse body weight, normalized to the weight at the beginning of the experiment [3, 28]: 95
Mouse body weight, normalized to the weight at the beginning of the experiment [3, 29]: 95
Mouse body weight, normalized to the weight at the beginning of the experiment [3, 30]: 100
Mouse body weight, normalized to the weight at the beginning of the experiment [3, 31]: 95
Hemolytic activity (concentration of peptide needed to kill 10% of red blood cells) [1]: 0.2 µmol/L
Peptide remaining after 30 min ([2]; LC peak area vs time 0, 30 min, three replicates): totally degraded
Peptide remaining [2, 5]: 0
Peptide remaining [2, 6]: 0
Peptide remaining [2, 7]: 0
Peptide remaining [2, 9]: 0
Peptide remaining [2, 10]: 0
Peptide remaining [2, 11]: 0
Peptide remaining [2, 12]: 0
Peptide remaining [2, 13]: 0
Peptide remaining [2, 14]: 0
Peptide remaining [2, 15]: 0
Peptide remaining [2, 16]: 0
Peptide remaining [2, 17]: 0
Peptide remaining [2, 18]: 0
Peptide remaining [2, 19]: 0
remaining at 1 h ([2]; fetal bovine serum, 25% in water, LC peak area, time 0 = 100, 1 h, replicate 1, read-out: Peptide remaining): 0%

GLLKRIKTLL-NH2 [Anoplin, reference compound]
Hemolytic activity (concentration of peptide needed to kill 10% of red blood cells) [1]: 50 µmol/L
Peptide remaining [2, 5]: 22.7
Peptide remaining [2, 6]: 28.8
Peptide remaining [2, 7]: 20.2
Peptide remaining [2, 8]: 20.4
Peptide remaining [2, 9]: 17.5
Peptide remaining [2, 10]: 19.1
Peptide remaining [2, 11]: 14.2
Peptide remaining [2, 12]: 14.0
Peptide remaining [2, 13]: 0.0
Peptide remaining [2, 14]: 0.0
Peptide remaining [2, 15]: 0.0
Peptide remaining [2, 16]: 0.0
Peptide remaining [2, 17]: 0.0
Peptide remaining [2, 18]: 0.0
Peptide remaining [2, 19]: 0.0
remaining at 0.5 h ([2]; fetal bovine serum, 25% in water, LC peak area vs time 0, 30 min, three replicates, read-out: Peptide remaining after 30 min): < 50%

FLGSLWRKAGTVF-NH2 [VD]
Hemolytic activity (concentration of peptide needed to kill 10% of red blood cells) [1]: no hemolytic activity was detected
Peptide remaining [2, 5]: 33.7
Peptide remaining [2, 6]: 43.8
Peptide remaining [2, 7]: 94.3
Peptide remaining [2, 8]: 66.3
Peptide remaining [2, 9]: 77.3
Peptide remaining [2, 10]: 49.4
Peptide remaining [2, 11]: 38.2
Peptide remaining [2, 12]: 88.5
Peptide remaining [2, 13]: 63.8
Peptide remaining [2, 14]: 66.4
Peptide remaining [2, 15]: 45.3
Peptide remaining [2, 16]: 44.7
Peptide remaining [2, 17]: 56.9
Peptide remaining [2, 18]: 59.8
Peptide remaining [2, 19]: 0.0

polymyxin B
Mouse body weight, normalized to the weight at the beginning of the experiment [3, 20]: 90
Mouse body weight, normalized to the weight at the beginning of the experiment [3, 21]: 95
Mouse body weight, normalized to the weight at the beginning of the experiment [3, 22]: 100
Mouse body weight, normalized to the weight at the beginning of the experiment [3, 23]: 90
Mouse body weight, normalized to the weight at the beginning of the experiment [3, 24]: 100
Mouse body weight, normalized to the weight at the beginning of the experiment [3, 25]: 100
Mouse body weight, normalized to the weight at the beginning of the experiment [3, 26]: 90
Mouse body weight, normalized to the weight at the beginning of the experiment [3, 27]: 100
Mouse body weight, normalized to the weight at the beginning of the experiment [3, 28]: 105
Mouse body weight, normalized to the weight at the beginning of the experiment [3, 29]: 95
Mouse body weight, normalized to the weight at the beginning of the experiment [3, 30]: 100
Mouse body weight, normalized to the weight at the beginning of the experiment [3, 31]: 110
A. baumannii load in the infected skin area (CFU quantification) ([4]; Day 2, mouse 1 of 8): 2000
A. baumannii load in the infected skin area (CFU quantification) ([4]; Day 2, mouse 2 of 8): 4000
A. baumannii load in the infected skin area (CFU quantification) ([4]; Day 2, mouse 3 of 8): 8000
A. baumannii load in the infected skin area (CFU quantification) ([4]; Day 2, mouse 4 of 8): 8000
A. baumannii load in the infected skin area (CFU quantification) ([4]; Day 2, mouse 5 of 8): 8000
A. baumannii load in the infected skin area (CFU quantification) ([4]; Day 2, mouse 6 of 8): 4000
A. baumannii load in the infected skin area (CFU quantification) ([4]; Day 2, mouse 7 of 8): 4000
A. baumannii load in the infected skin area (CFU quantification) ([4]; Day 2, mouse 8 of 8): 2000
A. baumannii load in the infected skin area (CFU quantification) ([4]; Day 4, mouse 1 of 8): 2000
A. baumannii load in the infected skin area (CFU quantification) ([4]; Day 4, mouse 2 of 8): 2000
A. baumannii load in the infected skin area (CFU quantification) ([4]; Day 4, mouse 3 of 8): 2000
A. baumannii load in the infected skin area (CFU quantification) ([4]; Day 4, mouse 4 of 8): 2000
A. baumannii load in the infected skin area (CFU quantification) ([4]; Day 4, mouse 5 of 8): 4000
A. baumannii load in the infected skin area (CFU quantification) ([4]; Day 4, mouse 6 of 8): 8000
A. baumannii load in the infected skin area (CFU quantification) ([4]; Day 4, mouse 7 of 8): 4000
A. baumannii load in the infected skin area (CFU quantification) ([4]; Day 4, mouse 8 of 8): 2000

GLGALLNVIKSGL-NH2 [AV]
Hemolytic activity (concentration of peptide needed to kill 10% of red blood cells) [1]: 100 µmol/L
Peptide remaining [2, 5]: 31.1
Peptide remaining [2, 6]: 34.0
Peptide remaining [2, 7]: 0.0
Peptide remaining [2, 8]: 27.7
Peptide remaining [2, 9]: 32.8
Peptide remaining [2, 10]: 0.0
Peptide remaining [2, 11]: 39.7
Peptide remaining [2, 12]: 49.0
Peptide remaining [2, 13]: 0.0
Peptide remaining [2, 14]: 26.2
Peptide remaining [2, 15]: 41.8
Peptide remaining [2, 16]: 0.0
Peptide remaining [2, 17]: 0.0
Peptide remaining [2, 18]: 0.0
Peptide remaining [2, 19]: 0.0
